Patent US8952024B2, “Herbicidal pyrimidone derivatives” (E I du Pont de Nemours and Company, priority 2009, dated 2015)
Read-outs that look alike come from different tables or passages of the source.

Key:
Assay in all cases: Test B pre-/postemergence plant response
Type in all cases: in vivo
[1] = test system: lambsquarters (Chenopodium album); conditions: Preemergence
Summary of the method: (§1)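 Compound in solvent + surfactant applied pre-em (loam/sand) or post-em (plants 2–18 cm, peat medium); greenhouse hold 13–15 days; visual 0–100 control score.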

[2] = test system: wheat (Triticum aestivum); conditions: for plant injury at 31 g/ha: 31 g ai/ha; for plant injury at 62 g/ha: 62 g ai/ha; for plant injury at 125 g/ha: 125 g ai/ha
Summary of the method: as §1

[3] = test system: large crabgrass (Digitaria sanguinalis); conditions: for pest or weed control at 31 g/ha: 31 g ai/ha; for pest or weed control at 62 g/ha: 62 g ai/ha; for pest or weed control at 125 g/ha: 125 g ai/ha
Summary of the method: as §1

soybean (Glycine max) = conditions: for plant injury at 31 g/ha: 31 g ai/ha; for plant injury at 62 g/ha: 62 g ai/ha; for plant injury at 125 g/ha: 125 g ai/ha
Summary of the method: as §1

[4] = test system: bermudagrass (Cynodon dactylon); conditions: for pest or weed control at 31 g/ha: 31 g ai/ha; for pest or weed control at 62 g/ha: 62 g ai/ha; for pest or weed control at 125 g/ha: 125 g ai/ha
Summary of the method: as §1

[5] = test system: woolly cupgrass (Eriochloa villosa); conditions: for pest or weed control at 31 g/ha: 31 g ai/ha; for pest or weed control at 62 g/ha: 62 g ai/ha; for pest or weed control at 125 g/ha: 125 g ai/ha
Summary of the method: as §1

[6] = test system: johnsongrass (Sorghum halepense); conditions: for pest or weed control at 31 g/ha: 31 g ai/ha; for pest or weed control at 62 g/ha: 62 g ai/ha; for pest or weed control at 125 g/ha: 125 g ai/ha
Summary of the method: as §1

[7] = Preemergence, 250 g ai/ha, 0 to 100 scale
[8] = Triticum aestivum, pre-emergence, Preemergence, scale 0 to 100 (0 no effect, 100 complete control), read-out: Plant response rating, Wheat
[9] = Digitaria sanguinalis, pre-emergence, Preemergence, scale 0 to 100 (0 no effect, 100 complete control), read-out: Plant response rating, Crabgrass, Large
[10] = Glycine max, pre-emergence, Preemergence, scale 0 to 100 (0 no effect, 100 complete control), read-out: Plant response rating, Soybean
[11] = Cynodon dactylon, pre-emergence, Preemergence, scale 0 to 100 (0 no effect, 100 complete control), read-out: Plant response rating, Bermudagrass
[12] = Eriochloa villosa, pre-emergence, Preemergence, scale 0 to 100 (0 no effect, 100 complete control), read-out: Plant response rating, Cupgrass, Woolly
[13] = Sorghum halepense, pre-emergence, Preemergence, scale 0 to 100 (0 no effect, 100 complete control), read-out: Plant response rating, Johnsongrass

Question: How did the pest or weed control at 31 g/ha ([1]; Chenopodium album, pre-emergence, 31 g ai/ha, scale 0 to 100 (0 no effect, 100 complete control), read-out: Plant response rating, Lambsquarters) turn out when `COCCn1c(-c2cc(F)cc(F)c2)ncc(C(=O)C2=C(O)C3CCC(C3)C2=O)c1=O` (stereo not shown) [Compound 243, 2-(3,5-difluorophenyl)-5-[(2-hydroxy-4-oxobicyclo[3.2.1]oct-2-en-3-yl)carbonyl]-3-(2-methoxyethyl)-4(3H)-pyrimidinone] was run?
Answer: 100%

Question: What about the pest or weed control at 62 g/ha ([1]; Chenopodium album, pre-emergence, 62 g ai/ha, scale 0 to 100 (0 no effect, 100 complete control), read-out: Plant response rating, Lambsquarters) of the same molecule?
Answer: 100%

Question: What about the pest or weed control at 125 g/ha ([1]; Chenopodium album, pre-emergence, 125 g ai/ha, scale 0 to 100, 0 no effect, 100 complete control, read-out: Plant response rating, Lambsquarters) of the same molecule?
Answer: 100%

Question: What about the “Lambsquarters plant response rating” value ([1]; 250 g ai/ha, 0 to 100 scale) of the same molecule?
Answer: 100

Question: And the “Wheat plant response rating” value [2, 7]?
Answer: 70

Question: What about the plant injury at 31 g/ha ([2]; Triticum aestivum, post-emergence, Postemergence, 0 to 100 scale (0 no effect, 100 complete control), read-out: Plant response rating, Wheat) of the same molecule?
Answer: 85%

Question: What about the plant injury at 62 g/ha ([2]; Triticum aestivum, post-emergence, Postemergence, scale 0 to 100 (0 no effect, 100 complete control), read-out: Plant response rating, Wheat) of the same molecule?
Answer: 95%

Question: And the plant injury at 125 g/ha ([2]; Triticum aestivum, post-emergence, Postemergence, scale 0 (no effect) to 100 (complete control), 13 to 15 days, read-out: Plant response rating, Wheat)?
Answer: 95%

Question: And the plant injury at 250 g/ha ([2]; Triticum aestivum, post-emergence, Postemergence, 250 g ai/ha, scale 0 to 100 (0 no effect, 100 complete control), 13 to 15 days, read-out: Plant response rating, Wheat)?
Answer: 100%

Question: And the plant injury at 31 g/ha [2, 8]?
Answer: 0%

Question: And the plant injury at 62 g/ha [2, 8]?
Answer: 40%

Question: And the plant injury at 125 g/ha ([2]; Triticum aestivum, pre-emergence, Preemergence, scale 0 to 100, 0 no effect, 100 complete control, read-out: Plant response rating, Wheat)?
Answer: 70%

Question: And the pest or weed control at 31 g/ha ([3]; Digitaria sanguinalis, post-emergence, Postemergence, 0 to 100 scale (0 no effect, 100 complete control), read-out: Plant response rating, Crabgrass, Large)?
Answer: 95%

Question: And the pest or weed control at 62 g/ha ([3]; Digitaria sanguinalis, post-emergence, Postemergence, scale 0 to 100 (0 no effect, 100 complete control), read-out: Plant response rating, Crabgrass, Large)?
Answer: 100%

Question: What about the pest or weed control at 125 g/ha ([3]; Digitaria sanguinalis, post-emergence, Postemergence, scale 0 (no effect) to 100 (complete control), 13 to 15 days, read-out: Plant response rating, Crabgrass, Large) of the same molecule?
Answer: 100%

Question: What about the pest or weed control at 250 g/ha ([3]; Digitaria sanguinalis, post-emergence, Postemergence, 250 g ai/ha, scale 0 to 100 (0 no effect, 100 complete control), 13 to 15 days, read-out: Plant response rating, Crabgrass, Large) of the same molecule?
Answer: 100%

Question: What about the pest or weed control at 31 g/ha [3, 9] of the same molecule?
Answer: 100%

Question: What about the pest or weed control at 62 g/ha [3, 9] of the same molecule?
Answer: 100%

Question: And the pest or weed control at 125 g/ha ([3]; Digitaria sanguinalis, pre-emergence, Preemergence, scale 0 to 100, 0 no effect, 100 complete control, read-out: Plant response rating, Crabgrass, Large)?
Answer: 100%

Question: What about the “Crabgrass, Large plant response rating” value [3, 7] of the same molecule?
Answer: 100

Question: What about the plant injury at 31 g/ha (soybean (Glycine max); Glycine max, post-emergence, Postemergence, 0 to 100 scale (0 no effect, 100 complete control), read-out: Plant response rating, Soybean) of the same molecule?
Answer: 95%

Question: And the plant injury at 62 g/ha (soybean (Glycine max); Glycine max, post-emergence, Postemergence, scale 0 to 100 (0 no effect, 100 complete control), read-out: Plant response rating, Soybean)?
Answer: 98%

Question: What about the plant injury at 125 g/ha (soybean (Glycine max); Glycine max, post-emergence, Postemergence, scale 0 (no effect) to 100 (complete control), 13 to 15 days, read-out: Plant response rating, Soybean) of the same molecule?
Answer: 100%

Question: What about the plant injury at 250 g/ha (soybean (Glycine max); Glycine max, post-emergence, Postemergence, 250 g ai/ha, scale 0 to 100 (0 no effect, 100 complete control), 13 to 15 days, read-out: Plant response rating, Soybean) of the same molecule?
Answer: 100%

Question: What about the plant injury at 31 g/ha (soybean (Glycine max); [10]) of the same molecule?
Answer: 65%

Question: And the plant injury at 62 g/ha (soybean (Glycine max); [10])?
Answer: 75%

Question: And the plant injury at 125 g/ha (soybean (Glycine max); Glycine max, pre-emergence, Preemergence, scale 0 to 100, 0 no effect, 100 complete control, read-out: Plant response rating, Soybean)?
Answer: 85%

Question: And the “Soybean plant response rating” value (soybean (Glycine max); [7])?
Answer: 95

Question: What about the pest or weed control at 31 g/ha ([4]; Cynodon dactylon, post-emergence, Postemergence, 0 to 100 scale (0 no effect, 100 complete control), read-out: Plant response rating, Bermudagrass) of the same molecule?
Answer: 98%

Question: What about the pest or weed control at 62 g/ha ([4]; Cynodon dactylon, post-emergence, Postemergence, scale 0 to 100 (0 no effect, 100 complete control), read-out: Plant response rating, Bermudagrass) of the same molecule?
Answer: 98%

Question: What about the pest or weed control at 125 g/ha ([4]; Cynodon dactylon, post-emergence, Postemergence, scale 0 (no effect) to 100 (complete control), 13 to 15 days, read-out: Plant response rating, Bermudagrass) of the same molecule?
Answer: 100%

Question: What about the pest or weed control at 250 g/ha ([4]; Cynodon dactylon, post-emergence, Postemergence, 250 g ai/ha, scale 0 to 100 (0 no effect, 100 complete control), 13 to 15 days, read-out: Plant response rating, Bermudagrass) of the same molecule?
Answer: 100%

Question: What about the pest or weed control at 31 g/ha [4, 11] of the same molecule?
Answer: 100%

Question: What about the pest or weed control at 62 g/ha [4, 11] of the same molecule?
Answer: 100%

Question: And the pest or weed control at 125 g/ha ([4]; Cynodon dactylon, pre-emergence, Preemergence, scale 0 to 100, 0 no effect, 100 complete control, read-out: Plant response rating, Bermudagrass)?
Answer: 100%

Question: What about the “Bermudagrass plant response rating” value ([4]; Preemergence, 250 g ai/ha, 0 to 100 scale, 0 no effect, 100 complete control) of the same molecule?
Answer: 100

Question: And the pest or weed control at 31 g/ha ([5]; Eriochloa villosa, post-emergence, Postemergence, 0 to 100 scale (0 no effect, 100 complete control), read-out: Plant response rating, Cupgrass, Woolly)?
Answer: 95%

Question: What about the pest or weed control at 62 g/ha ([5]; Eriochloa villosa, post-emergence, Postemergence, scale 0 to 100 (0 no effect, 100 complete control), read-out: Plant response rating, Cupgrass, Woolly) of the same molecule?
Answer: 95%

Question: What about the pest or weed control at 125 g/ha ([5]; Eriochloa villosa, post-emergence, Postemergence, scale 0 (no effect) to 100 (complete control), 13 to 15 days, read-out: Plant response rating, Cupgrass, Woolly) of the same molecule?
Answer: 100%

Question: What about the pest or weed control at 250 g/ha ([5]; Eriochloa villosa, post-emergence, Postemergence, 250 g ai/ha, scale 0 to 100 (0 no effect, 100 complete control), 13 to 15 days, read-out: Plant response rating, Cupgrass, Woolly) of the same molecule?
Answer: 100%

Question: What about the pest or weed control at 31 g/ha [5, 12] of the same molecule?
Answer: 75%

Question: And the pest or weed control at 62 g/ha [5, 12]?
Answer: 95%

Question: What about the pest or weed control at 125 g/ha ([5]; Eriochloa villosa, pre-emergence, Preemergence, scale 0 to 100, 0 no effect, 100 complete control, read-out: Plant response rating, Cupgrass, Woolly) of the same molecule?
Answer: 95%

Question: What about the “Cupgrass, Woolly plant response rating” value [5, 7] of the same molecule?
Answer: 100

Question: And the “Johnsongrass plant response rating” value [6, 7]?
Answer: 100

Question: What about the pest or weed control at 31 g/ha ([6]; Sorghum halepense, post-emergence, Postemergence, 0 to 100 scale (0 no effect, 100 complete control), read-out: Plant response rating, Johnsongrass) of the same molecule?
Answer: 100%

Question: What about the pest or weed control at 62 g/ha ([6]; Sorghum halepense, post-emergence, Postemergence, scale 0 to 100 (0 no effect, 100 complete control), read-out: Plant response rating, Johnsongrass) of the same molecule?
Answer: 100%

Question: What about the pest or weed control at 125 g/ha ([6]; Sorghum halepense, post-emergence, Postemergence, scale 0 (no effect) to 100 (complete control), 13 to 15 days, read-out: Plant response rating, Johnsongrass) of the same molecule?
Answer: 100%

Question: What about the pest or weed control at 250 g/ha ([6]; Sorghum halepense, post-emergence, Postemergence, 250 g ai/ha, scale 0 to 100 (0 no effect, 100 complete control), 13 to 15 days, read-out: Plant response rating, Johnsongrass) of the same molecule?
Answer: 100%

Question: And the pest or weed control at 31 g/ha [6, 13]?
Answer: 70%

Question: And the pest or weed control at 62 g/ha [6, 13]?
Answer: 95%

Question: What about the pest or weed control at 125 g/ha ([6]; Sorghum halepense, pre-emergence, Preemergence, scale 0 to 100, 0 no effect, 100 complete control, read-out: Plant response rating, Johnsongrass) of the same molecule?
Answer: 95%
